Results reported in ChEMBL document CHEMBL1201862, “PubChem BioAssay data set” (2004).
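1) Cells in 96-well plates. 2) Compound, 48 h, 5 concentrations. 3) Linear interpolation between surrounding doses. 4) Unreached endpoint = highest concentration. Here, GI50 denotes the concentration required for 50% inhibition of growth.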 Active and inactive are the calls of the source. No stated cut-off is given here; in the data, active = GI50 up to about 1.1 µM and inactive = higher.

Legend:
Test in all cases: NCI tumour cell line growth inhibition, 48 h
[1] = tested on: LOX IMVI
[2] = tested on: SK-OV-3
[3] = tested on: TK-10
[4] = tested on: M14
[5] = tested on: NCI-H23
[6] = tested on: OVCAR-3
[7] = tested on: SW-620
[8] = tested on: OVCAR-5
[9] = tested on: SN12C
[10] = tested on: Malme-3M
[11] = tested on: HCT-15
[12] = tested on: HCC 2998
[13] = tested on: COLO 205
[14] = tested on: IGROV-1
[15] = tested on: EKVX
[16] = tested on: KM12
[17] = tested on: UACC-62
[18] = tested on: OVCAR-8
[19] = tested on: A549
[20] = tested on: CAKI-1

| SMILES | GI50 [1] | GI50 [2] | GI50 [3] | GI50 [4] | GI50 [5] | GI50 [6] | GI50 [7] | GI50 [8] | GI50 [9] | GI50 [10] | GI50 [11] [µM] | GI50 [12] | GI50 [13] | GI50 [14] | GI50 [15] | GI50 [16] | GI50 [17] | GI50 [18] | GI50 [19] | GI50 [20] |
| --- | --- | --- | --- | --- | --- | --- | --- | --- | --- | --- | --- | --- | --- | --- | --- | --- | --- | --- | --- | --- |
| CC1=NN(C(=O)c2ccccc2O)C(=O)/C1=C/c1ccc(O)cc1 | 0.468 µM (active) | 0.26 µM (active) | 13 µM (inactive) | 0.351 µM (active) | 0.568 µM (active) | 0.278 µM (active) | 2.73 µM (inactive) | 7.96 µM (inactive) | 1.62 µM (inactive) | 0.431 µM (active) | 0.485 | 3.22 µM (inactive) | 34.9 µM (inactive) | 0.14 µM (active) | 1.81 µM (inactive) | 0.298 µM (active) | 0.34 µM (active) | 0.358 µM (active) | 0.291 µM (active) | 0.662 µM (active) |
| COC(=O)c1s/c(=N\C(=S)N(C)C)n(-c2ccccc2)c1C(=O)OC | > 100 µM (inactive) | > 100 µM (inactive) | > 100 µM (inactive) | > 100 µM (inactive) | > 100 µM (inactive) | > 100 µM (inactive) | > 100 µM (inactive) | > 100 µM (inactive) | > 100 µM (inactive) | > 100 µM (inactive) | > 100 | > 100 µM (inactive) | > 100 µM (inactive) | > 100 µM (inactive) | > 100 µM (inactive) | > 100 µM (inactive) | > 100 µM (inactive) | > 100 µM (inactive) | > 100 µM (inactive) | > 100 µM (inactive) |
| CC1(O)C=CC(=O)C=C1 | 20.4 µM (inactive) | > 100 µM (inactive) | 44.1 µM (inactive) | 20.1 µM (inactive) | 30.3 µM (inactive) | 24.2 µM (inactive) | 59.2 µM (inactive) | 98.2 µM (inactive) | 52.7 µM (inactive) | 20.3 µM (inactive) | 16 | > 71.6 µM (inactive) | 34.8 µM (inactive) | 26.8 µM (inactive) | 47.3 µM (inactive) | > 48.2 µM (inactive) | 18.5 µM (inactive) | 25.3 µM (inactive) | > 76.4 µM (inactive) | 30.8 µM (inactive) |
| CCOC(=O)/C=C(\C(=O)OCC)n1ccc(=O)n(Cc2cnnn2CCCCOC(C)=O)c1=O | 4.09 µM (inactive) | 34 µM (inactive) | 4.54 µM (inactive) | 17.5 µM (inactive) | 13.2 µM (inactive) | 5.3 µM (inactive) | 2.05 µM (inactive) | 12.4 µM (inactive) | 10.4 µM (inactive) | 2.06 µM (inactive) | 3.73 | 18.4 µM (inactive) | 1.3 µM (inactive) | 14 µM (inactive) | 11 µM (inactive) | 15.9 µM (inactive) | 6.14 µM (inactive) | 5.08 µM (inactive) | 19.9 µM (inactive) | 2.38 µM (inactive) |
| O=C(NNc1ccc([N+](=O)[O-])cc1)C1OC(CO)C(O)C1O (stereo not given) | > 100 µM (inactive) | > 100 µM (inactive) | > 100 µM (inactive) | > 100 µM (inactive) | > 100 µM (inactive) | > 100 µM (inactive) | 21.8 µM (inactive) | > 100 µM (inactive) | > 100 µM (inactive) | > 100 µM (inactive) | 54.8 | > 100 µM (inactive) | > 100 µM (inactive) | > 100 µM (inactive) | > 100 µM (inactive) | 81.8 µM (inactive) | > 100 µM (inactive) | > 100 µM (inactive) | > 100 µM (inactive) | > 100 µM (inactive) |
| CC(C)C(=O)Nc1cc(C(F)(F)F)ccc1[N+](=O)[O-] | > 100 µM (inactive) | > 100 µM (inactive) | > 100 µM (inactive) | > 100 µM (inactive) | > 100 µM (inactive) | > 100 µM (inactive) | > 100 µM (inactive) | > 100 µM (inactive) | > 100 µM (inactive) | 68.5 µM (inactive) | > 100 | > 100 µM (inactive) | > 100 µM (inactive) | > 100 µM (inactive) | > 100 µM (inactive) | > 100 µM (inactive) | > 100 µM (inactive) | > 100 µM (inactive) | > 100 µM (inactive) | > 100 µM (inactive) |
| CC(C)(C)OC(=O)NC(CSSCC(NC(=O)OC(C)(C)C)C(=O)O)C(=O)O (stereo not given) | > 100 µM (inactive) | > 100 µM (inactive) | > 100 µM (inactive) | > 100 µM (inactive) | > 100 µM (inactive) | > 100 µM (inactive) | > 100 µM (inactive) | > 100 µM (inactive) | > 100 µM (inactive) | > 100 µM (inactive) | > 100 | > 100 µM (inactive) | > 100 µM (inactive) | > 100 µM (inactive) | > 100 µM (inactive) | > 100 µM (inactive) | > 100 µM (inactive) | > 100 µM (inactive) | > 100 µM (inactive) | > 100 µM (inactive) |
| N#CC(=S)Nc1ccc(F)cc1 | 30.8 µM (inactive) | > 100 µM (inactive) | 39.1 µM (inactive) | 54.3 µM (inactive) | 53.7 µM (inactive) | 56.4 µM (inactive) | 60.8 µM (inactive) | 83.9 µM (inactive) | > 100 µM (inactive) | 50.2 µM (inactive) | 88.7 | 45.4 µM (inactive) | 22.4 µM (inactive) | 32.1 µM (inactive) | 72.3 µM (inactive) | 70.3 µM (inactive) | 40.2 µM (inactive) | 96.2 µM (inactive) | 33.6 µM (inactive) | 63.8 µM (inactive) |
| CN1c2ccccc2N(C(=O)c2ccc([N+](=O)[O-])cc2)C(CC(=O)O)c2cccn21 (stereo not given) | > 100 µM (inactive) | > 100 µM (inactive) | > 100 µM (inactive) | > 100 µM (inactive) | > 100 µM (inactive) | > 100 µM (inactive) | > 100 µM (inactive) | > 100 µM (inactive) | > 100 µM (inactive) | > 100 µM (inactive) | > 100 | > 100 µM (inactive) | > 100 µM (inactive) | > 100 µM (inactive) | > 100 µM (inactive) | > 100 µM (inactive) | > 100 µM (inactive) | > 100 µM (inactive) | > 100 µM (inactive) | > 100 µM (inactive) |
| COC(=O)C1=C(O)c2cc3c(cc2[C@H](c2cc(OC)c(OC)c(OC)c2)C1C(=O)OC)OCO3 (stereo not given in full) | > 100 µM (inactive) | 44.1 µM (inactive) | 31.3 µM (inactive) | 89.5 µM (inactive) | > 100 µM (inactive) | 30.4 µM (inactive) | 80.2 µM (inactive) | > 100 µM (inactive) | 25.5 µM (inactive) | 28.9 µM (inactive) | > 100 | > 100 µM (inactive) | 19.7 µM (inactive) | 48.6 µM (inactive) | 68.2 µM (inactive) | 35.2 µM (inactive) | 30.1 µM (inactive) | 39.5 µM (inactive) | > 100 µM (inactive) | 25.2 µM (inactive) |
